Laboratory results published in ChEMBL document CHEMBL5696439 (Cancer Res, 2010).
pIC50: −log10 of the molar value. Active and inactive are the calls of the source. The rule behind the calls is not given here.

Tests used:
[1] = biological target: Cyclin-dependent kinase 5/CDK5 activator 1 (Homo sapiens) (UniProt Q00535+Q15078); assay: Inhibition of recombinant human full-length GST/His-tagged CDK5/p35 expressed in insect cells at 2 uM using Ser/Thr 12 as substrate measured after 1 hr by Z'-LYTE assay relative to control; conditions: Insect cell
[2] = biological target: Protein kinase C beta type (Homo sapiens) (UniProt P05771); assay: Inhibition of recombinant human full length GST-tagged PRKCB2 expressed in insect cells at 2 uM using Ser/Thr 07 as substrate measured after 1 hr by Z'-LYTE assay relative to control; conditions: Insect cell
[3] = tested on: HT-29; assay: Antitumor activity against human HT-29 cells xenografted in female nude mouse model assessed as suppression in P-S6K at T389 level at 50 mg/kg, iv administered once a week and measured at least 8 hrs by immunoblot analysis; format: functional, organism-based
[4] = tested on: MDA-MB-361; assay: Induction of apoptosis in PI3K/mTOR hyperactive human MDA-MB-361 cells assessed as cell death at 0.001 to 100 micromol/L incubated for 24 hrs by FACS analysis; format: functional, cell-based; conditions: dose 0.001-100 µmol/L
[5] = biological target: AMP-activated protein kinase (AMPK) alpha-1/beta-1/gamma-1 (Homo sapiens) (UniProt P54619+Q9Y478+Q13131); assay: Inhibition of recombinant human full-length GST/His-tagged AMPKalpha1/beta1/gamma1 expressed in insect cells at 2 uM using Ser/Thr 23 as substrate measured after 1 hr by Z'-LYTE assay relative to control; conditions: Insect cell
[6] = tested on: MDA-MB-361; assay: Antitumor activity against human MDA-MB-361 cells assessed as reduction in oxygen consumption rate at 1 micromol/L incubated for 1 hrs relative to control; format: functional; design: scale not given: the % may be the effect or the level left; conditions: dose 1 µmol/L, at 1 µM
[7] = biological target: ALK tyrosine kinase receptor (Homo sapiens) (UniProt Q9UM73); assay: Inhibition of recombinant human GST-tagged ALK (1058 to 1620 residues) expressed in insect cells at 2 uM using Tyr 01 as substrate measured after 1 hr by Z'-LYTE assay relative to control; conditions: Insect cell
[8] = biological target: Ribosomal protein S6 kinase beta-1 (Homo sapiens) (UniProt P23443); assay: Inhibition of recombinant human GST-tagged RPS6KB1 (1-421 residues) expressed in insect cells at 2 uM using Ser/Thr 07 as substrate measured after 1 hr by Z'-LYTE assay relative to control; conditions: Insect cell
[9] = biological target: Serine/threonine-protein kinase Nek1 (Homo sapiens) (UniProt Q96PY6); assay: Inhibition of recombinant human GST-tagged NEK1 (1-505 residues) expressed in insect cells at 2 uM using Ser/Thr 07 as substrate measured after 1 hr by Z'-LYTE assay relative to control; conditions: Insect cell
[10] = biological target: Protein kinase C iota type (Homo sapiens) (UniProt P41743); assay: Inhibition of recombinant human full length His-tagged PRKCI expressed in baculovirus expression system at 2 uM using Ser/Thr 07 as substrate measured after 1 hr by Z'-LYTE assay relative to control
[11] = tested on: LNCaP; assay: Antiproliferative activity against human LNCaP cells assessed as cell growth inhibition at 10 micromol/L incubated for 3 days by MTS assay relative to control; format: functional; conditions: 72 h, dose 10 µmol/L, time 3 day
[12] = tested on: A549; assay: Antiproliferative activity against human A549 cells assessed as cell growth inhibition incubated for 24 hrs by MTS assay; format: functional, cell-based; conditions: A549, 24 h
[13] = biological target: Tyrosine-protein kinase JAK1 (Homo sapiens) (UniProt P23458); assay: Inhibition of recombinant human GST-tagged JAK1 (866-1154 residues) expressed in insect cells at 2 uM using Tyr 06 as substrate measured after 1 hr by Z'-LYTE assay relative to control; conditions: Insect cell
[14] = biological target: Glycogen synthase kinase-3 alpha (Homo sapiens) (UniProt P49840); assay: Inhibition of recombinant human full-length GST-tagged GSK3A expressed in insect cells at 2 uM using Ser/Thr 09 as substrate measured after 1 hr by Z'-LYTE assay relative to control; conditions: Insect cell
[15] = biological target: Serine/threonine-protein kinase 25 (Homo sapiens) (UniProt O00506); assay: Inhibition of recombinant human full length GST-tagged STK25 expressed in insect cells at 2 uM using Ser/Thr 07 as substrate measured after 1 hr by Z'-LYTE assay relative to control; conditions: Insect cell
[16] = tested on: Epidermal growth factor receptor (Homo sapiens), P00533 [T790M]; assay: Inhibition of recombinant human GST-tagged EGFR T790M mutant (668-1210 residues) expressed in insect cells at 2 uM using Tyr 04 as substrate measured after 1 hr by Z'-LYTE assay relative to control; conditions: Insect cell
[17] = biological target: Serine/threonine-protein kinase Sgk1 (Homo sapiens) (UniProt O00141); assay: Inhibition of recombinant human GST-tagged SGK (60-431 residues) expressed in insect cells at 2 uM using Ser/Thr 06 as substrate measured after 1 hr by Z'-LYTE assay relative to control; conditions: Insect cell
[18] = biological target: Dual specificity protein kinase CLK3 (Homo sapiens) (UniProt P49761); assay: Inhibition of recombinant human full-length GST-tagged CLK3 expressed in insect cells at 2 uM using Ser/Thr 18 as substrate measured after 1 hr by Z'-LYTE assay relative to control; conditions: Insect cell
[19] = biological target: Serine/threonine-protein kinase MRCK alpha (Homo sapiens) (UniProt Q5VT25); assay: Inhibition of recombinant human His-tagged CDC42BPA (1-473 residues) expressed in baculovirus expression system at 2 uM using Ser/Thr 13 as substrate measured after 1 hr by Z'-LYTE assay relative to control
[20] = tested on: LNCaP; assay: Induction of apoptosis in human LNCaP cells assessed as increase in PARP cleavage at 0.3 to 3 micromol/L incubated for 48 hrs by Western blot analysis; format: functional, cell-based; conditions: dose 0.3-3 µmol/L
[21] = biological target: MAP kinase-activated protein kinase 2 (Homo sapiens) (UniProt P49137); assay: Inhibition of recombinant human full length His-tagged MAPKAPK2 expressed in E. coli at 2 uM using Ser/Thr 04 as substrate measured after 1 hr by Z'-LYTE assay relative to control
[22] = tested on: MDA-MB-361; assay: Antitumor activity against human MDA-MB-361 cells xenografted in female nude mouse model assessed as reduction in P-AKT at T308 level at 50 mg/kg, iv administered once a week and measured at least 8 hrs by immunoblot analysis; format: functional, organism-based
[23] = tested on: MDA-MB-468; assay: Induction of apoptosis in human MDA-MB-468 cells assessed as increase in G1 phase at 1 micromol/L incubated for 24 hrs by FACS analysis; format: functional, cell-based; conditions: dose 1.0 µmol/L
[24] = biological target: Protein kinase C alpha type (Homo sapiens) (UniProt P17252); assay: Inhibition of recombinant human full length GST-tagged PRKCA expressed in baculovirus expression system at 2 uM using Ser/Thr 07 as substrate measured after 1 hr by Z'-LYTE assay relative to control
[25] = biological target: mTORC2 (Homo sapiens) (UniProt P42345+Q6R327+Q9BVC4+Q9BPZ7); conditions: U-87 MG, dose 0.025-2 µmol/L, time 6.0 hrs

Ribosomal protein S6 kinase beta-1 (Homo sapiens), sequence (P23443 whole entry, looked up, the tested form may be a part): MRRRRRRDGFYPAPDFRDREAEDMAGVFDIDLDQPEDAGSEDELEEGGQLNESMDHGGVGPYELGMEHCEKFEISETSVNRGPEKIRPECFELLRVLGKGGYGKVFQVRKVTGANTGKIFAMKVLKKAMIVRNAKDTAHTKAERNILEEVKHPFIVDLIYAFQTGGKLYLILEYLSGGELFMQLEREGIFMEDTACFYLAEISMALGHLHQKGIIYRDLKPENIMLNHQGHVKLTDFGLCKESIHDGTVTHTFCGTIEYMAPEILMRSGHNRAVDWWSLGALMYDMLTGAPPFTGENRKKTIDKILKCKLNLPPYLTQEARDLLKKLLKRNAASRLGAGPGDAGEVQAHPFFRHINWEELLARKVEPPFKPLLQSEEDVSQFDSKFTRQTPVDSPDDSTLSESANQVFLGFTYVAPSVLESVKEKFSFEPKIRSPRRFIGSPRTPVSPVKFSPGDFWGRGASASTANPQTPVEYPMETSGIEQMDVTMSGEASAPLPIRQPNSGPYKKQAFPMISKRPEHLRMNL
Serine/threonine-protein kinase MRCK alpha (Homo sapiens), sequence (Q5VT25 whole entry, the tested form may be a part): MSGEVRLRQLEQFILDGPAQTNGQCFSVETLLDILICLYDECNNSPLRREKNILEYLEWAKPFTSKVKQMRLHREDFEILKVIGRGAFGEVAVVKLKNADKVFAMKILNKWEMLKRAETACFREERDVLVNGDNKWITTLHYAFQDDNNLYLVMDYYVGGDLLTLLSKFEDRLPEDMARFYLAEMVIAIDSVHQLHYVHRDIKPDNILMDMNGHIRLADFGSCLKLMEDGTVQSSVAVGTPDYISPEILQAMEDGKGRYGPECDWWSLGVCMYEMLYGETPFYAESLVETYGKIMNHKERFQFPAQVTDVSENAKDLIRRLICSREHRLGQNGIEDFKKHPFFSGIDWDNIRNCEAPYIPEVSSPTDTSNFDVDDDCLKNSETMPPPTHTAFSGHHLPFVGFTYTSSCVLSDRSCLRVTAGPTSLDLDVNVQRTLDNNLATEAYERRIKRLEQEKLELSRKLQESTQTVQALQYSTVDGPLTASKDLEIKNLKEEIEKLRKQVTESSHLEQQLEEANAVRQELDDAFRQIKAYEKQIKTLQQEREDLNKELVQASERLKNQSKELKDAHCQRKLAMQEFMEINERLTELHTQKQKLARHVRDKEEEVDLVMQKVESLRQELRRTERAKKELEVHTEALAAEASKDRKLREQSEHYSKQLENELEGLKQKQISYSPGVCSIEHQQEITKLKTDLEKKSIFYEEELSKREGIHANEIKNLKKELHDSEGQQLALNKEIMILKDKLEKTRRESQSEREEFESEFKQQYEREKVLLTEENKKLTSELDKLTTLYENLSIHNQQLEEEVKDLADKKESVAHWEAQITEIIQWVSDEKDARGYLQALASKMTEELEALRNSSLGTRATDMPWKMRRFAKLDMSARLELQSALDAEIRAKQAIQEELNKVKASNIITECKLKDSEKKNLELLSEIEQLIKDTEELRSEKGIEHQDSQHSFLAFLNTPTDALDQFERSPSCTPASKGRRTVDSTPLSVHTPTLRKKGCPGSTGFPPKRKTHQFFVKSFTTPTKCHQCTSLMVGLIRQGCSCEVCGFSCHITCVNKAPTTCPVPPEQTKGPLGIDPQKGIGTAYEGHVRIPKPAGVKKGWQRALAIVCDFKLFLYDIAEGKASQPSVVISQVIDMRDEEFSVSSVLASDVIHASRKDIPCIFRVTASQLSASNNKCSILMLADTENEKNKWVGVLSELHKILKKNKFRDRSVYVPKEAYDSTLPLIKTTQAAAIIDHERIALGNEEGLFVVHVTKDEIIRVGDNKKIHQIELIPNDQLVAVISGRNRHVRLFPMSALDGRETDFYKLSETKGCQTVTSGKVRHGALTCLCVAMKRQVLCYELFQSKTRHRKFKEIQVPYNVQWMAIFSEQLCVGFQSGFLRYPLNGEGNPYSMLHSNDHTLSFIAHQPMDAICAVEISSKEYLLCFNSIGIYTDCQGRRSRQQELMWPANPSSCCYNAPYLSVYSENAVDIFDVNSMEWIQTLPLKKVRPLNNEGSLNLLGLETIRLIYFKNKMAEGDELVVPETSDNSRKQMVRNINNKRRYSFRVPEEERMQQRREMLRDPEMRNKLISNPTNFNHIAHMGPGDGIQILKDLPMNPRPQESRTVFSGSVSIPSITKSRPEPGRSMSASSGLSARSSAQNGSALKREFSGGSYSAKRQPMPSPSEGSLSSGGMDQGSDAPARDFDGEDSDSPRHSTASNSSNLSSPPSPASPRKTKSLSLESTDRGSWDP
Tyrosine-protein kinase JAK1 (Homo sapiens), sequence (P23458 whole entry, the tested form may be a part): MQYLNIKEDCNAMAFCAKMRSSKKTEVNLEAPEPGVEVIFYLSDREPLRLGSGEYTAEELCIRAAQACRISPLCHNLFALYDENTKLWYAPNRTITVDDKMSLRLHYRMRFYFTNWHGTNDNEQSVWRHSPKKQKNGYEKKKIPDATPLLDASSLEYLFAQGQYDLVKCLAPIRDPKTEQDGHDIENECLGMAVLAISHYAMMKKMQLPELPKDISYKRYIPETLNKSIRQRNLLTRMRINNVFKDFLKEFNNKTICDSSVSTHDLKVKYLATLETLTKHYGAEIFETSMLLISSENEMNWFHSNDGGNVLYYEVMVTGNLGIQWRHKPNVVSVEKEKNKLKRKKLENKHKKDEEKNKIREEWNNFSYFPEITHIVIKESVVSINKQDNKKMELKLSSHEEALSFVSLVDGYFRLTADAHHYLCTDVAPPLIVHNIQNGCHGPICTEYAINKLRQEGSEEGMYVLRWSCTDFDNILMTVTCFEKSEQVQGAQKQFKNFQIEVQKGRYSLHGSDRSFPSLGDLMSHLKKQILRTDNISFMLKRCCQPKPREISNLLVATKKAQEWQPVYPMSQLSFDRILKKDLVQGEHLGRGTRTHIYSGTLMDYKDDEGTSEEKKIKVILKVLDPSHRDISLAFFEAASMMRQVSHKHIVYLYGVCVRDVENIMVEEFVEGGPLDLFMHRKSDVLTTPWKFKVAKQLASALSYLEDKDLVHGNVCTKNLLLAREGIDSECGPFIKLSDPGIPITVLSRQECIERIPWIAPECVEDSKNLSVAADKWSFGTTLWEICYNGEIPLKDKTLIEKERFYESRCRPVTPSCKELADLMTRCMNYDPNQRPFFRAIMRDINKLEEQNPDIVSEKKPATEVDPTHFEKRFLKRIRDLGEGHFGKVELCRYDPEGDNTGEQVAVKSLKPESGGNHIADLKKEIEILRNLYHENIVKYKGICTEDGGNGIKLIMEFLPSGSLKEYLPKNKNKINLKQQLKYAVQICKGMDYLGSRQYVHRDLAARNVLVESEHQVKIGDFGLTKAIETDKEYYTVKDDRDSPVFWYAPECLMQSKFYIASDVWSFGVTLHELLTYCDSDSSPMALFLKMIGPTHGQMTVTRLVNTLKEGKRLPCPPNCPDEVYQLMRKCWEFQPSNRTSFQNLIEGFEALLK
Dual specificity protein kinase CLK3 (Homo sapiens), sequence (P49761 whole entry, looked up, the tested form may be a part): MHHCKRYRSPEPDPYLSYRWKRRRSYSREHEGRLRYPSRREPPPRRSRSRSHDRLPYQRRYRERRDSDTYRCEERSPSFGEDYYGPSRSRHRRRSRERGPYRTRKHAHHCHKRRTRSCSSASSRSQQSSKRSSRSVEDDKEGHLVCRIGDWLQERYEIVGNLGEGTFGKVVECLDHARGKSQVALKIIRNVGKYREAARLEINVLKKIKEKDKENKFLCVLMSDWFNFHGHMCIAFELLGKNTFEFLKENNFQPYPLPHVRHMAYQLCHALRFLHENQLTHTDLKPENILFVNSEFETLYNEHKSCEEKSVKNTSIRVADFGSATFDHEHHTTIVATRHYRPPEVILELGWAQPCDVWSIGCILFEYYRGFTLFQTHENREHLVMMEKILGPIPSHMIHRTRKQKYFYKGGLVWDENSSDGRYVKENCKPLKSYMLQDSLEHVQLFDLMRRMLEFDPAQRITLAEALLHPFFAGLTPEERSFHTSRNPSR
Protein kinase C beta type (Homo sapiens), sequence (P05771 2-671 limits assumed): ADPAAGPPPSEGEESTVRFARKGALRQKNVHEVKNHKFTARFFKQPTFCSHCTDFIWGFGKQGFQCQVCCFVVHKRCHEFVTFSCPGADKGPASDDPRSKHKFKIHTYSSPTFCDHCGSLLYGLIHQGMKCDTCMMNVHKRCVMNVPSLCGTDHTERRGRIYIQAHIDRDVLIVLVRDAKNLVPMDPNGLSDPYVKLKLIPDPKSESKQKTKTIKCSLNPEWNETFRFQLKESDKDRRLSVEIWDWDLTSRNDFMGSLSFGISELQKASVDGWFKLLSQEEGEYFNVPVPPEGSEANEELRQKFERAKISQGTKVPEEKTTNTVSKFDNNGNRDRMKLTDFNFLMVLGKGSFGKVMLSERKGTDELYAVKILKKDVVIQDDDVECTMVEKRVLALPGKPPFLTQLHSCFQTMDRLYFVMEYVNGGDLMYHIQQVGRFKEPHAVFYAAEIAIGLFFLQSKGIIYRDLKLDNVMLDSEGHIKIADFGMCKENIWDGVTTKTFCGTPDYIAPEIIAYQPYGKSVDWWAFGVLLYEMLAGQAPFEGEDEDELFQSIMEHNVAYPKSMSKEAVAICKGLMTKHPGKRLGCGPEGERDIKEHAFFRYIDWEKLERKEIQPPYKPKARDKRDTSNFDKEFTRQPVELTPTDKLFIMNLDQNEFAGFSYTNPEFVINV
MAP kinase-activated protein kinase 2 (Homo sapiens), sequence (P49137 whole entry, looked up): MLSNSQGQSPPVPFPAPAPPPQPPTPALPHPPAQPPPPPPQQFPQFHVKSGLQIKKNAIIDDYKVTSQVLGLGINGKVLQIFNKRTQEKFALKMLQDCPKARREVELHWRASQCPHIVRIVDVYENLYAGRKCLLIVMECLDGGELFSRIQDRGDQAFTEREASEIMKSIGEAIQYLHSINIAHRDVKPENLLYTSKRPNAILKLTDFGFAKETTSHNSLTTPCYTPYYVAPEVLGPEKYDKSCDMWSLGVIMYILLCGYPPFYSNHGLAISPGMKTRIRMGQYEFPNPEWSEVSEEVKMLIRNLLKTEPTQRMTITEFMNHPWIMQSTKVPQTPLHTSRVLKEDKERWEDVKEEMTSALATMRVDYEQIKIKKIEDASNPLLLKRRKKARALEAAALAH

CNC(=O)Nc1ccc(-c2nc(N3CC4CCC(C3)O4)c3cnn(C4CCC5(CC4)OCCO5)c3n2)cc1
inhibition [1]: -4% | inhibition [2]: 9% | Activity [3]: Active | Activity [4]: Active | inhibition [5]: 5% | Activity [6]: 35% | inhibition [7]: 0% | inhibition [8]: 2% | inhibition [9]: 7% | inhibition [10]: 6% | inhibition at 10 µM [11]: 100% | pIC50 [12]: 6.99 | inhibition [13]: 5% | inhibition [14]: -1% | inhibition [15]: 2% | inhibition [16]: 2% | inhibition [17]: -2% | inhibition [18]: 2% | inhibition [19]: 7% | Activity [20]: Active | inhibition [21]: 4% | Activity [22]: inactive | Activity [23]: Active | inhibition [24]: 10% | inhibition [25]: inactive
